SMILES strings stand for the structures. Values joined by “and” are separate entries in the source; they are usually repeats but may differ in a detail not shown here. Equal values may be shown once. Read-outs that look alike come from different tables or passages of the source.

The subject of the test is Pseudomonas aeruginosa ATCC 9027. Nature of the test: MIC determination by two fold dilutions in 96 well microtiter plates, biocide with and without bio-surfactant. In kind it is cell-based. Particulars: for MIC: Pseudomonas aeruginosa; for microbial growth (absorbance at 660 nm): Table 3 / FIG. 5, triplicate wells. The procedure: In microbiology, minimum inhibitory concentration (MIC) is defined as the lowest concentration of an antimicrobial that will inhibit the growth of an microorganism after overnight or long incubation. Minimum inhibitory concentrations are important in diagnostic laboratories to confirm resistance of microorganisms to an antimicrobial agent and also to monitor the activity of new antimicrobial agents. A lower MIC is an indication of a better antimicrobial agent, as less is generally needed for acceptable performance. An MIC determination is generally regarded as a basic or standard laboratory measurement of the activity of an antimicrobial agent against an organism.
Biocides tested: • Methylchloroisothiazolinone/Methylisothiazolinone (CMIT/MIT) [also known as KATHON]: • Benzisothiazolinone [BIT] • Methylisothiazolinone [MIT]
Microorganism Used: Pseudomonas aeruginosa ATCC 9027
Biosurfactants tested: • 1. R95D90 (SigmaAldrich) 95% pure rhamnolipid with 90% Di-rhamnolipid dominant • 2. R95M90 (SigmaAldrich) 95% pure rhamnolipid with 90% Mono-rhamnolipid dominant • 3. Natural Saponin
MIC test is a method for determining the Minimum Inhibitory Concentration of a compound required to inhibit or kill the test organisms. MIC50 test is a method for determining the Minimum Inhibitory Concentration of a compound required to inhibit or kill the 50% of the test organisms.
1. The method was based on the MIC (Minimum Inhibitory Concentration) determination by standard two fold dilutions prepared in an appropriate medium and tested in 96 well microtiter plates.
2. A 4× concentration of the active from bio-surfactant stock solution [400 ppm] was prepared to dispense into […].
3. The plates were divided into four sections. Unless otherwise stated, Columns 1-3 received a combination of the bio-surfactant and biocide, Columns 4-6 received biocide alone, and Columns 7-9 received the bio-surfactant alone. Column 10 was left empty, Column 11 was blank medium and Column 12 was medium plus the suspension of the organism.
5. One microtiter plate per test organism and per biocide was used. The dilution scheme is attached as a separate PDF file “Dilution Scheme”.
6. 100 μL of sterile water was aliquoted into to columns 4-6, 11 and 12 with the aid of a 12-channel pipettor add 50 μL in Columns 1-3 and 7-9.
7. Dispensed 50 μL of the 8× stock solution of an appropriate biocide (MIT, BIT or Kathon) in Row A Columns 1-3
8. After mixing with the aid of the multichannel pipettor, 50 μL from the row A wells were transferred to 2nd row [B] wells and after mixing, 50 μL transferred to row C and, the operations were repeated down to row […] and 50 μL from H row (the last row) were discarded.
9. Make 4× stock solution [400 ppm] of each of the bio-surfactants. Dispensed 50 μL of bio-surfactant in 4 different 96 well plates in Columns 7-9 in each of the respective plates.
10. In wells 4-6, 100 μL of individual biocides at 4× concentration were added to the top row A, then serially diluted down to row H while discarding the final 100 μL from row H.
11. Columns 1-3 and 7-9 received 50 μL of 4× bio-surfactant.
12. In a separate tube, prepared bacterial inoculums from 24 hr grown cultures by suspending the cells in 2× Tryptic Soy Broth medium for bacteria.
13. The bacterial inocula were adjusted to 5-6 logs cfu/ml by measuring the turbidity.
14. With an aid of the multichannel pipettor, aliquots of 100 μL organisms were dispensed into each well except for Column 11 in which blank medium was added.
15. Incubated the plates at 35 Celsius degrees for 24 hours for bacterial growth
16. Made visual recordings of positive or negative growth in wells. Measured the absorbance at 660 nm and assessed viability via addition of resazurin dye. Note: for bacterial growth, 10 μL of dye Resazurin stock [250 mg/50 mL] was added to determine the positive and negative growths as determined by color change from blue to pink. […]

As for `O=c1[nH]sc2ccccc12` [BIT, 1,2-benzisothiazolin-3-one], the MIC is 25 µg/mL (ATCC9027, biocide alone, Di-Rhamnolipid 95% series, read-out: MIC w/o BS); 25 µg/mL (ATCC9027, biocide alone, Mono + Di Rhamnolipid 95% series, read-out: MIC w/o BS); 25 µg/mL (ATCC9027, biocide alone, Mono-Rhamnolipid 95% series, read-out: MIC w/o BS); 25 µg/mL (ATCC9027, biocide alone, Natural Saponin series, read-out: MIC w/o BS); 12.5 µg/mL (ATCC9027, with Di-Rhamnolipid 95% (50 ppm), read-out: MIC with BS); 12.5 µg/mL (ATCC9027, with Mono + Di Rhamnolipid 95% (50 ppm), read-out: MIC with BS). Also, the MIC reads like this: (ATCC9027, with Mono-Rhamnolipid 95% (50 ppm), read-out: MIC with BS) 12.5 µg/mL; (ATCC9027, with Natural Saponin (Purchased), 50 ppm active, read-out: MIC with BS) more than 200 µg/mL. The “microbial growth (absorbance at 660 nm)” value by setting is: (PPM 1.56) 0.046 and 0.048 and 0.047; (PPM 3.13) 0.046 and 0.047 and 0.048; (PPM 6.25) 0.047 and 0.048; (PPM 50) 1.278 and 1.284 and 1.285; (PPM 100) 1.339 and 1.313 and 1.302; (PPM 200) 1.371 and 1.379.
Consider `Cn1sccc1=O` [MIT, 2-methyl-4-isothiazolin-3-one], for which the MIC came out at 12.5 µg/mL (ATCC9027, read-out: MIC w/o BS, biocide alone, Di-Rhamnolipid 95% series); 12.5 µg/mL (ATCC9027, read-out: MIC w/o BS, biocide alone, Mono + Di Rhamnolipid 95% series); 12.5 µg/mL (ATCC9027, read-out: MIC w/o BS, biocide alone, Mono-Rhamnolipid 95% series); 12.5 µg/mL (ATCC9027, read-out: MIC w/o BS, biocide alone, Natural Saponin series); 12.5 µg/mL (ATCC9027, read-out: MIC with BS, with Di-Rhamnolipid 95% (50 ppm)); 6.5 µg/mL (ATCC9027, read-out: MIC with BS, with Mono + Di Rhamnolipid 95% (50 ppm)). For the same compound, the MIC is 6.5 µg/mL (ATCC9027, read-out: MIC with BS, with Mono-Rhamnolipid 95% (50 ppm)) and more than 100 µg/mL (ATCC9027, read-out: MIC with BS, with Natural Saponin (Purchased), 50 ppm active).
